Measurements: patent US7879863B2, “Aniline derivatives” (Ajinomoto Co., Inc., priority 2004, dated 2011)
pIC50: −log10 of the molar value. Counter-ions that a name gives are not always drawn. Marks after values point to notes of the source that are not given here.

System: acetic acid writhing model
Test: Efficacy evaluation in acetic acid writhing model
Format: in vivo, male ICR mice
Conditions: 3 mg/kg oral, mice, writhing number 5 to 20 min after 0.9% acetic acid i.p.; mean ± standard error
Experimental: Efficacy evaluation in acetic acid writhing model
The acetic acid writhing model was subjected to evaluation according to the method of European Journal of Pharmacology, 352, 47-52 (1998). To be specific, a solution of the test compound adjusted to the objective concentration with a 0.5 (w/v) % tragacanth gum solution was orally administered to male ICR mice (CHARLES RIVER LABORATORIES JAPAN, INC.) at 5 mL/kg, and a 0.9% acetic acid solution adjusted with a physiological saline was intraperitoneally administered 60 min later at 5 mL/kg. The number of writhing for 15 min from 5 min to 20 min after administration of a 0.9% acetic acid solution was counted and taken as the writhing number of the test compound. A mouse, to which a 0.5 (w/v) % tragacanth gum (TG) solution was orally administered at 5 ml/kg instead of the test compound, was used as a control. The suppression rate (%) was calculated by subtracting the relative value of each mouse from the relative value when the average value of the control group is 100%. As a Reference Example, the value obtained by oral administration of a positive control drug, indomethacin, instead of the test compound is shown. […] For testing the significant difference, Dunnett's t-test was used, and statistic significance as shown by P<0.05 and P<0.01 relative to the TG control group is shown in the Table with * and **, respectively.

| SMILES | suppression rate (%) |
| --- | --- |
| CCN1CCC(O)c2cc(C(F)(F)F)ccc21 (centres unmarked) [Compound E-6] | 58.7 ± 7.0** % |

Same assay, conditions: 10 mg/kg oral, mice, writhing number 5 to 20 min after 0.9% acetic acid i.p.; mean ± standard error

| SMILES | suppression rate (%) |
| --- | --- |
| CCN1CCC(O)c2cc(C(F)(F)F)ccc21 (centres unmarked) [Compound E-6] | 58.7 ± 5.8** % |
| COc1ccc2c(c1)c(CC(=O)O)c(C)n2C(=O)c1ccc(Cl)cc1 [Indomethacin, indomethacin, reference compound] | 64.1 ± 10.8** % |

Same assay, conditions: 30 mg/kg oral, mice, writhing number 5 to 20 min after 0.9% acetic acid i.p.; mean ± standard error

| SMILES | suppression rate (%) |
| --- | --- |
| CCN1CCC(O)c2cc(C(F)(F)F)ccc21 (centres unmarked) [Compound E-6] | 64.9 ± 8.3** % |

Molecular target: T1, human activated tissue kallikrein (Homo sapiens, UniProt P06870)
T1 construct: 6xHis (C); made in house; host or cells: baculovirus / Sf21 insect cells
Test: Measurement of tissue kallikrein inhibitory activity
Format: biochemical
Conditions: activated tissue kallikrein activity (initial rate) inhibited by 50%; substrate D-valyl-L-leucyl-L-arginyl-p-nitroanilide; 37° C.
Experimental: Measurement of tissue kallikrein inhibitory activity
Expression and purification of human activated tissue kallikrein was performed according to the method of Angermann (A. Angermann et al., Eur. J. Biochem., 206, 225-233 (1992)). That is, a gene was prepared by adding 6 residues of histidine to the C-terminal side of human pancreas kallikrein gene (D. Fukuchima et al, Biochemistry, 24, 8037-8043 (1985)), and tissue prokallikrein was expressed by a system using a baculovirus-insect cell (Sf21). Purified human tissue kallikrein was obtained from the culture supernatant by purification using a nickel chelate column (Ni-NTA, QIAGEN K. K.), digestion with TPCK trypsin and further nickel chelate column. To a solution (100 μL) of the human activated tissue kallikrein adjusted to 0.0625 μg/mL with an assay buffer (100 mM tris-hydrochloride buffer (pH 8.4) containing 0.2M NaCl, 0.02% Tween 20, and 0.1% PEG 6000) was added an assay buffer (containing 2% DMSO) solution (50 μL) of the test compound adjusted to the objective concentration, and the mixture was incubated at 37° C. for 10 minutes (min=minutes). Then, a 4 mM solution (50 μL) of D-valyl-L-leucyl-L-arginyl-p-nitroanilide hydrochloride (BACHEM AG) adjusted with the assay buffer was added, the absorbance was measured and the reaction rate was determined. As a control, a DMSO solution (50 μL) was added instead of the solution of the test compound. Absorbance was measured at a wavelength of 405 nm at 60 second intervals for 90 min using a Benchmark Plus Microplate Reader (BIO RAD). The negative logarithm value (abbreviated as pIC50) of the test compound concentration when the activated tissue kallikrein activity (initial rate) was inhibited by 50% without addition of the test compound was used as an index of the activated tissue kallikrein inhibitory activity.

T1 sequence (P06870 25-262): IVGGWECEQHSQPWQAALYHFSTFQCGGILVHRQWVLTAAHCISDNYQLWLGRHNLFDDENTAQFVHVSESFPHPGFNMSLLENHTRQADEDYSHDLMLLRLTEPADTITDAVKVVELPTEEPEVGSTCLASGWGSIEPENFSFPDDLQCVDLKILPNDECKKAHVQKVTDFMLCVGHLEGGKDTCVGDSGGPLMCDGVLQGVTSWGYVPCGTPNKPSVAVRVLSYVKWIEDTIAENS

| pIC50 | SMILES |
| --- | --- |
| 6.89 | CC(C)[C@H](CCNC(=O)Cc1c[nH]c2ccccc12)Nc1ccc(C(F)(F)F)cc1 [Compound A-51] |
| 7.19 | CC(C)[C@H](CC(=O)NCc1ccccc1)Nc1ccc(C(F)(F)F)cc1 [Compound C-40, (3S)-N-benzyl-4-methyl-3-{[4-(trifluoromethyl)phenyl]amino}pentanamide] |
| 7.31 | CC(C)[C@H](CNC(=O)Cc1c[nH]c2ccccc12)Nc1ccc(C(F)(F)F)cc1N [Compound A-58] |
| 6.60 | CCN1CCC(O)c2cc(C(F)(F)F)ccc21 (centres unmarked) [Compound E-6] |
| 6.69 | O=C(N[C@H]1CCN(c2ccc(C(F)(F)F)cc2)C1)C1CCN(c2ccncc2)CC1 [Compound B-2] |
| 7.33 | CC(C)[C@H](CCNC(=O)C1CCN(c2ccncc2)CC1)Nc1ccc(C(F)(F)F)cc1 [Compound A-48] |
| 6.89 | CC(C)[C@H](CC(=O)NCCc1ccccc1)Nc1ccc(C(F)(F)F)cc1 [Compound C-42] |
| 7.08 | CC(C)[C@H](CNC(=O)Cc1ccccn1)Nc1ccc(C(F)(F)F)cc1N [Compound A-59] |
| 6.59 | CCCCN1CCC(O)c2cc(C(F)(F)F)ccc21 (centres unmarked) [Compound E-4] |
| 6.97 | CC(C)[C@H](CCNC(=O)Cc1cccs1)Nc1ccc(C(F)(F)F)cc1 [Compound A-50] |
| 6.61 | O=C(Cc1ccccc1)NC[C@@H]1CCCN1c1ccc(C(F)(F)F)cc1 [Compound A-40] |
| 6.61 | CCCN1CCC(O)c2cc(C(F)(F)F)ccc21 (centres unmarked) [Compound E-3, 1-propyl-6-(trifluoromethyl)-1,2,3,4-tetrahydroquinolin-4-ol] |
| 7.70 | CC(C)[C@H](CNC(=O)Cc1ccccc1)Nc1ccc(C(F)(F)F)cc1CO [Compound A-55, N-((2R)-2-{[2-(hydroxymethyl)-4-(trifluoromethyl)phenyl]amino}-3-methylbutyl)-2-phenylacetamide] |
| 6.82 | CC(C)[C@H](CCNC(=O)C1CCN(C(C)C)CC1)Nc1ccc(C(F)(F)F)cc1 [Compound A-52] |
| 7.04 | CC(C)[C@H](CC(=O)NCCc1ccccn1)Nc1ccc(C(F)(F)F)cc1 [Compound C-43] |
| 7.30 | CC(C)[C@H](CNC(=O)Cc1ccccc1)Nc1ccc(C(F)(F)F)cc1N [Compound A-56, N-((2R)-2-{[2-amino-4-(trifluoromethyl)phenyl]amino}-3-methylbutyl)-2-phenylacetamide trifluoroacetate] |
| 7.44 | CC(C)[C@H](CNC(=O)[C@@H](N)Cc1c[nH]c2ccccc12)Nc1ccc(C(F)(F)F)cc1N [Compound A-57] |
| 6.52 | CC(C)[C@H](CC(=O)NCc1ccccn1)Nc1ccc(C(F)(F)F)cc1 [Compound C-41] |
| 6.87 | CC(C)[C@H](CNC(=O)[C@H](N)Cc1c[nH]c2ccccc12)Nc1ccc(C(F)(F)F)cc1N [Compound A-60] |
| 7.33 | CC(C)[C@H](CCNC(=O)c1ccc2ncccc2c1)Nc1ccc(C(F)(F)F)cc1 [Compound A-49] |
| 6.95 | CCNc1ccc(C(F)(F)F)cc1CO [Compound E-2] |
| 6.68 | O=C(Cc1c[nH]c2ccccc12)NC[C@H]1CCCN1c1ccc(C(F)(F)F)cc1 [Compound A-41] |

Continued, molecule first:

| SMILES | pIC50 |
| --- | --- |
| CC(C(=O)NC[C@H](Nc1ccc(C(F)(F)F)cc1)C(C)C)c1ccc(-c2ccccc2)c(F)c1 (some centres unmarked) [Compound A-6] | 7.24 |
| CC(C)[C@H](CNC(=O)/C=C/c1ccncc1)Nc1ccc(C(F)(F)F)cc1 [Compound A-13] | 6.75 |
| CC(C)[C@H](CNC(=O)c1cccc(N(C)C)c1)Nc1ccc(C(F)(F)F)cc1 [Compound A-10] | 6.84 |
| CC(C)[C@H](CNC(=O)[C@@H](O)c1ccccc1)Nc1ccc(C(F)(F)F)cc1 [Compound A-11] | 6.80 |
| O=C(Cc1ccccc1)NC[C@H]1CCCN1c1ccc(C(F)(F)F)cc1 [Compound A-39] | 7.38 |
| CC(C)[C@H](CNC(=O)[C@H](N)c1ccccc1)Nc1ccc(C(F)(F)F)cc1 [Compound A-9] | 6.99 |
| CC(C)[C@H](CNC(=O)Cc1c[nH]c2ccccc12)Nc1ccc(C(F)(F)F)cc1 [Compound A-4] | 7.53 |
| CC(C)[C@H](CNC(=O)Cc1cccnc1)Nc1ccc(C(F)(F)F)cc1 [Compound A-7] | 7.07 |
| CC(C)[C@H](CNC(=O)[C@@H](C)N)Nc1ccc(C(F)(F)F)cc1 [Compound A-17] | 6.53 |
| CC(C)[C@H](CCNC(=O)c1ccccc1)Nc1ccc(C(F)(F)F)cc1 [Compound A-47, N-((3S))-4-methyl-3-{[4-(trifluoromethyl)phenyl]amino}pentyl)benzamide trifluoroacetate] | 6.68 |
| CC(C)[C@H](CNC(=O)C1CCN(c2ccncc2)CC1)Nc1ccc(C(F)(F)F)cc1 [Compound A-14] | 6.74 |
| CC(C)[C@H](CNC(=O)Cc1ccccc1)Nc1ccc(C(F)(F)F)cc1 [Compound A-1, N-((2R)-3-methyl-2-{[4-(trifluoromethyl)phenyl]amino}butyl)-2-phenylacetamide trifluoroacetate] | 7.66 |
| CC(C)[C@H](CNC(=O)C1(c2ccccc2)CC1)Nc1ccc(C(F)(F)F)cc1 [Compound A-16] | 6.58 |
| CC(C)[C@H](CNC(=O)[C@@H](N)CO)Nc1ccc(C(F)(F)F)cc1 [Compound A-18] | 6.51 |
| CC(C)[C@H](CNC(=O)[C@@H](N)C(C)C)Nc1ccc(C(F)(F)F)cc1 [Compound A-15] | 6.74 |
| CC(C)[C@H](CNC(=O)C(=O)c1c[nH]c2ccccc12)Nc1ccc(C(F)(F)F)cc1 [Compound A-12] | 6.79 |
| CC(C)[C@H](CNC(=O)CCc1c[nH]c2ccccc12)Nc1ccc(C(F)(F)F)cc1 [Compound A-5] | 7.30 |
| CC(C)[C@H](CNC(=O)CCN)Nc1ccc(C(F)(F)F)cc1 [Compound A-3] | 7.59 |

System: DSS-induced enteritis model
Test: Efficacy evaluation in DSS-induced enteritis model
Format: in vivo, female CBA mice
Conditions: 10 mg/kg oral, mice, 5% DSS; relative to non-treatment group = 100%; mean ± standard error
Excerpt: Efficacy evaluation in DSS-induced enteritis model
The dextran sodium sulfate (DSS)-induced enteritis model was subjected to evaluation by a partly-modified methods of Gastroenterology, 98, 694-702 (1990) and Cytokine, 11, 890-896 (1998). A 5 (w/v) % DSS (manufactured by Sigma, MW 5,000) solution was freely taken by female CBA mice (CHARLES RIVER LABORATORIES JAPAN, INC.) for a given period to induce enteritis. A solution of the test compound adjusted to the objective concentration with a 0.5 (w/v) % tragacanth gum (TG) solution was orally administered at 5 mL/kg. Upon autopsy, the length, weight and the like of the large intestine were evaluated and used as an index of the onset of inflammatory enteritis. As a control, a mouse, to which a 0.5 (w/v) % TG solution was orally administered at 5 mL/kg instead of the test compound, was used. The length and weight of the large intestine are expressed as the relative value when the average value of the non-treatment group is 100%. As a Reference Example, the values obtained by oral administration of a positive control drug, salazosulfapyridine, instead of the test compound are shown. […] For testing the significant difference, Dunnett's t-test was used, and statistic significance as shown by P<0.05 and P<0.01 relative to the TG control group is shown in the Table with * and **, respectively.

| SMILES | large intestine length (%) | large intestine weight (%) |
| --- | --- | --- |
| CCN1CCC(O)c2cc(C(F)(F)F)ccc21 (centres unmarked) [Compound E-6] | 85.2 ± 2.4** % | 117.5 ± 5.1** % |

Same assay, conditions: 30 mg/kg oral, mice, 5% DSS; relative to non-treatment group = 100%; mean ± standard error

| SMILES | large intestine length (%) | large intestine weight (%) |
| --- | --- | --- |
| CCN1CCC(O)c2cc(C(F)(F)F)ccc21 (centres unmarked) [Compound E-6] | 87.9 ± 2.0** % | 110.7 ± 4.1** % |

Same assay, conditions: 200 mg/kg oral, mice, 5% DSS; relative to non-treatment group = 100%; mean ± standard error

| SMILES | large intestine length (%) | large intestine weight (%) |
| --- | --- | --- |
| O=C(O)c1cc(/N=N/c2ccc(S(=O)(=O)Nc3ccccn3)cc2)ccc1O [salazosulfapyridine, reference compound] | 78.1 ± 1.5* % | 123.0 ± 1.9** % |
